Results: ChEMBL document CHEMBL1147180, “Quantitative structure-selectivity relationship for M2 selectivity between M1 and M2 of piperidinyl piperidine derivatives as muscarinic antagonists” (Bioorg Med Chem Lett, 2007)

How the values were obtained:
[1] = target: Muscarinic acetylcholine receptors; M1 & M2 (Homo sapiens) (UniProt P11229+P08172); experiment: Selectivity for muscarinic M1 receptor over muscarinic M2 receptor; format: protein assay
[2] = target: T1, Muscarinic acetylcholine receptor M1 (Homo sapiens, UniProt P11229); experiment: Binding affinity to muscarinic M1 receptor
T1 sequence (P11229 whole entry): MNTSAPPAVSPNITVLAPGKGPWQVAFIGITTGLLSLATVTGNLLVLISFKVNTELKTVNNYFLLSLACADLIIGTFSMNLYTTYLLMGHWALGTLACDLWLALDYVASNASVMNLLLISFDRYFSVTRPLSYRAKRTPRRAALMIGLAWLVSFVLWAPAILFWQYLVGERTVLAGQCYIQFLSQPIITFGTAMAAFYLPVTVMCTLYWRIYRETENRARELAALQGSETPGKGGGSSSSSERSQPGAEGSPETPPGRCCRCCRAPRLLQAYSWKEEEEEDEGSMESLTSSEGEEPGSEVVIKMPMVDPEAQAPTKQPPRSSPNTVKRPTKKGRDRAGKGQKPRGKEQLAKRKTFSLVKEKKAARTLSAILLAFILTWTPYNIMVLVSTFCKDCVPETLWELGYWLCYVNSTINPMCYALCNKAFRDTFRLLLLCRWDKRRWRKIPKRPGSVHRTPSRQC

SMILES	Ratio pKi [1]	Ki [2] [nM]
C=C(c1ccc(S(=O)(=O)c2ccc(OC)cc2)cc1)C1CCN(C2CCN(S(=O)(=O)CCC)CC2)CC1	1.95	
C=C(c1ccc(S(=O)(=O)c2ccc(OC)cc2)cc1)C1CCN(C2CCN(C(=O)OC(C)C)CC2)CC1	1.56	14.8
C=C(c1ccc(S(=O)(=O)c2ccc(OC)cc2)cc1)C1CCN(C2CCN(S(=O)(=O)CC)CC2)CC1	2.21	74.5
C=C(c1ccc(S(=O)(=O)c2ccc(OC)cc2)cc1)C1CCN(C2CCN(C(=O)OCCCC)CC2)CC1	1.45	9.79
C=C(c1ccc(S(=O)(=O)c2ccc(OC)cc2)cc1)C1CCN(C2CCN(C(=O)C3CC3)CC2)CC1	2.42	68.1
C=C(c1ccc(S(=O)(=O)c2ccc(OC)cc2)cc1)C1CCN(C2CCNCC2)CC1	0.903	
C=C(c1ccc(S(=O)(=O)c2ccc(OC)cc2)cc1)C1CCN(C2CCN(C(=O)OCc3ccccc3)CC2)CC1	1.38	10.8
C=C(c1ccc(S(=O)(=O)c2ccc(OC)cc2)cc1)C1CCN(C2CCN(S(=O)(=O)c3ccccc3)CC2)CC1	2.02	37.4
C=C(c1ccc(S(=O)(=O)c2ccc(OC)cc2)cc1)C1CCN(C2CCN(S(=O)(=O)C(C)C)CC2)CC1	2.3	31.7
C=C(c1ccc(S(=O)(=O)c2ccc(OC)cc2)cc1)C1CCN(C2CCN(C(=O)OCCC)CC2)CC1	1.84	40.7
C=C(c1ccc(S(=O)(=O)c2ccc(OC)cc2)cc1)C1CCN(C2CCN(S(=O)(=O)CCCC)CC2)CC1	2.18	57
C=C(c1ccc(S(=O)(=O)c2ccc(OC)cc2)cc1)C1CCN(C2CCN(C(=O)CC)CC2)CC1	1.2	60.8
C=C(c1ccc(S(=O)(=O)c2ccc(OC)cc2)cc1)C1CCN(C2CCN(C(=O)Cc3ccccc3)CC2)CC1	1.5	95.7
C=C(c1ccc(S(=O)(=O)c2ccc(OC)cc2)cc1)C1CCN(C2CCN(C(=O)OCC)CC2)CC1	1.77	
C=C(c1ccc(S(=O)(=O)c2ccc(OC)cc2)cc1)C1CCN(C2CCN(C(=O)OC)CC2)CC1	1.78	60.4
C=C(c1ccc(S(=O)(=O)c2ccc(OC)cc2)cc1)C1CCN(C2CCN(S(=O)(=O)Cc3ccccc3)CC2)CC1	1.36	33.3
C=C(c1ccc(S(=O)(=O)c2ccc(OC)cc2)cc1)C1CCN(C2CCN(C(=O)OCC(C)C)CC2)CC1	1.54	10.5
C=C(c1ccc(S(=O)(=O)c2ccc(OC)cc2)cc1)C1CCN(C2CCN(C(=O)C(C)C)CC2)CC1	1.72	117
C=C(c1ccc(S(=O)(=O)c2ccc(OC)cc2)cc1)C1CCN(C2CCN(C(=O)CCC)CC2)CC1	2.04	
